Source: patent EP3381898A1, “SYMMETRICAL TRIS-ARYL-AMIDE DERIVATIVES AND THEIR USE AS ANTI-HEPARANASE” (priority 2017, dated 2018)
Where two headings read alike, the source gives them in different places.

Legend:
heparanase = target: T1, heparanase (Homo sapiens, UniProt Q9Y251); assay: AGA*IA assay: heparanase-catalyzed fondaparinux cleavage, colorimetric (WST-1); assay type: biochemical
T1 sequence (Q9Y251 158-543 limits assumed): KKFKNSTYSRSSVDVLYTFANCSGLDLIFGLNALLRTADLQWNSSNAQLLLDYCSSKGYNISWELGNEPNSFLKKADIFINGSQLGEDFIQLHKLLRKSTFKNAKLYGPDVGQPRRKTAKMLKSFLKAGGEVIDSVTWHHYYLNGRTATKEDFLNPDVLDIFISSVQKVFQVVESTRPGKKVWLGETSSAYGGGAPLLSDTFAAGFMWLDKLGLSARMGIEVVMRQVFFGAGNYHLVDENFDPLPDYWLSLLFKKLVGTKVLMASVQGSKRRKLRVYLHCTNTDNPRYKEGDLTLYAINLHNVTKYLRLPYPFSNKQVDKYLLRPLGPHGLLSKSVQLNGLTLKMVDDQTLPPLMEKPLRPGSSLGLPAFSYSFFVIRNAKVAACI
T1 sequence (Q9Y251 36-109 limits assumed): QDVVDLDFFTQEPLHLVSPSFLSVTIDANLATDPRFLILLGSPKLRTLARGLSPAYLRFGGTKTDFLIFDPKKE

FGF-1 = assay: Real-Time Quantitative PCR of mRNA gene expression in HT1080 cells; assay type: cell-based, human; conditions: 24 h, 2.5 uM, mean value
Procedure: (§1) To evaluate the effect of heparanase inhibitors on the tumor transcription of genes encoding for proangiogenic factors, such as FGF1/2, VEGF, MMP-9, HSPE-1, the relative mRNA levels were analyzed by quantitative Real-Time Quantitative PCR.
(§2) To perform the assay, HT1080 (human fibrosarcoma) cells were cultured in complete medium containing 10%FCS (fetal calf serum). Cells were plated in 24-well plates and treated at fixed concentration (i.e., highest non-toxic concentration) of test compounds. After 24 h, cells were detached, collected and total RNA extracted by RNeasy Mini Kit (QIAGEN). Following reverse transcription step, FGF1/2, VEGF, MMP-9, HSPE-1 mRNA levels, were quantified by qPCR using the advanced Universal SYBR Green Supermix (Bio Rad) and ABI PRISM 7900HT Thermal Cycler System (Perkin Elmer), according to the manufacturer's instructions. Appropriate no-RT and non-template controls were included in each 96-well PCR reaction, and dissociation analysis was performed at the end of each run to confirm the specificity of the reaction. Relative levels of RNA were calculated using the ddCt method. Standard curve and sample data were run in duplicate. In Table 4 a mean value is reported.

VEGF = assay: as above; assay type: cell-based, human; conditions: 24 h, 2.5 uM, mean value
Procedure: as §1, §2

MMP-9 = assay: as above; assay type: cell-based, human; conditions: 24 h, 2.5 uM, mean value
Procedure: as §1, §2

HPSE-1 = assay: as above; assay type: cell-based, human; conditions: 24 h, 2.5 uM, mean value
Procedure: as §1, §2

FGF-2 = assay: as above; assay type: cell-based, human; conditions: 24 h, 2.5 uM, mean value
Procedure: as §1, §2

[1] = system: HT1080 (human fibrosarcoma); assay: SRB Cell Cytotoxicity Assay (cell proliferation, 72h); assay type: cell-based; conditions: HT-1080, 72 h, read-out: Concentration (µM) of test compounds at which the cell growth is inhibited by 50 %. HT1080
Procedure: (§3) SRB Cell Cytotoxicity Assay is an assay based upon the quantitative staining of cellular proteins by sulforhodamine B (SRB). This assay can be used for high-throughput drug screening ([…], Nature Protocol. 2006, 1, 112). Sulforhodamine B is an anionic aminoxanthene dye that forms an electrostatic complex with the basic amino acid residues of proteins under moderately acid conditions, which provides a sensitive linear response. […] Inhibition of cell proliferation was then measured by the classical colorimetric SRB Cell Cytotoxicity assay. Absorbance was measured by spectrophotometer at a wavelength of 510 nm and cell proliferation was determined as percent with respect to control cells (cells treated with the vehicle alone). EC50 values were then determined by GraphPad Prism.

[2] = system: U2OS (human osteosarcoma); assay: as above; assay type: cell-based; conditions: 72 h, read-out: Concentration (µM) of test compounds at which the cell growth is inhibited by 50 %. U2OS
Procedure: as §3

[3] = system: U87MG (human glioblastoma astrocytoma); assay: as above; assay type: cell-based; conditions: U-87 MG, 72 h, read-out: Concentration (µM) of test compounds at which the cell growth is inhibited by 50 %. U87MG
Procedure: as §3

In the case of `Cn1cc(NC(=O)c2ccc(Oc3ccc(C(=O)Nc4cc(C(=O)Nc5cccc(CC(=O)N[C@@H](Cc6ccccc6)C(=O)O)c5)n(C)c4)cc3)cc2)cc1C(=O)Nc1cccc(CC(=O)N[C@@H](Cc2ccccc2)C(=O)O)c1` [Compound 36e, (2S,2'S)-2,2'-((2,2'-(((4,4'-((4,4'-Oxybis(benzoyl))bis(azanediyl))bis(1-methyl-1H-pyrrole-2,2'-carbonyl))bis(azanediyl))bis(3,1-phenylene))bis(acetyl))bis(azanediyl))bis(3-phenylpropanoic acid)], the IC50 (heparanase; AGA*IA screening, read-out: anti-heparanase activity) is reported as less than 500 nM, the IC50 (heparanase; Table 1, range activity classes, AGA*IA test on Fondaparinux, read-out: AGAIA assay IC50) is reported as 50 to 490 nM and the IC50 (heparanase; Table 2, classes as in Table 1, read-out: AGA*IA assay) is reported as 50 to 490 nM. The “Gene Expression (% mRNA vs. control) FGF-1” value (FGF-1) was ~ 62%, the “Gene Expression (% mRNA vs. control) VEGF” value (VEGF) was ~ 51% and the “Gene Expression (% mRNA vs. control) MMP-9” value (MMP-9) was ~ 50%. For the same compound, the “Gene Expression (% mRNA vs. control) HPSE-1” value (HPSE-1) was ~ 88%, the “Gene Expression (% mRNA vs. control) FGF-2” value (FGF-2) was ~ 64% and the EC50 [1] was greater than 2.5 µM. The EC50 [2] was greater than 2.5 µM and the EC50 [3] was greater than 2.5 µM.
